Patent publication US12226410B2, “Methods for enhancing cellular clearance of pathological molecules via activation of the cellular protein ykt6” (NORTHWESTERN UNIVERSITY, priority 2019, dated 2025)

Legend:
GCase [1] = assay: FTI treatment of DASYN53 mice: GCase maturation and activity in midbrain; type: in vivo; conditions: i.p. 0.9 mg/kg, 26d
Procedure: FIGS. 7A, 7B, 7C, 7D, and 7E. FTI treatment restores functional membrane-associated ykt6 complexes in DASYN53 mice. 7A) Immunohistochemistry in the midbrain of mice showing ykt6, tyrosine hydroxylase (TH), NeuN, and nuclei (DAPI). Scale bar, 50 μm. 7B) Ykt6 membrane shift analysis in olfactory bulbs of FTI (LNK-754)-injected DASYN53 mice (12-14 months, i.p. 26d, 0.9 mg/kg) (n=5, non-transgenic (nTg)+veh; n=4, DASYN53+veh; n=4 DASYN53+FTI). GAPDH and sec22b are loading controls. 7C) SEC/western blot analysis of midbrains of FTI-treated DASYN53 mice. Inputs are shown on the left. NSE is a loading control. […] (n=3, nTg+veh; n=4, DASYN53+veh; n=4 DASYN53+FTI). 7D) Quantification of complexes from SEC in 7C. 7E) GCase maturation was assessed in midbrain lysates by endo H resistance (n=4, nTg+veh; n=4, DASYN53+veh; n=4 DASYN53+FTI). For all quantifications, each point represents a measurement from an individual animal. […]
FIGS. 8A, 8B, 8C, 8D, 8E, and 8F. […] 8B & 8C) Quantification of soluble and insoluble a-syn from midbrains of FTI-treated DASYN53 mice normalized to total protein (CBB). […] 8D) Midbrain TH levels were quantified by western blot of FTI-treated DASYN53 mice (n=3). […]
Analysis of post-ER GCase. […] Endo H resistant bands migrating at 62-64 kDa were measured as post-ER forms of GCase, and normalized to GAPDH levels. […]

GCase [2] = assay: FTI treatment of wild-type mice: GCase maturation and activity in cortex; type: in vivo; conditions: daily i.p. 0.9 mg/kg, 14 days
Procedure: FIGS. 15A, 15B, 15C, 15D, 15E, and 15F. FTI treatment of wild-type mice enhances ykt6 SNARE complexes, lysosomal activity, and reduces a-syn. 15A) Wild-type mice (C57Bl/6) were i.p. injected daily with FTI for 14 days at 0.9 mg/kg and compared to vehicle injected mice. Extracts from the cortex were analyzed for cytosolic (cyt) and membrane (mem) distribution of ykt6 (veh, n=5; FTI, n=6). 15B) Representative gel filtration/western blot analysis of cortical extracts of veh or FTI injected wild-type mice. Inputs are shown on the left. NSE indicates equal column loading. 15C) Quantification of ykt6 and STX5 complexes (ca. 120A) from gel filtration analysis in C (n=4 mice). Fraction 1 corresponds to complexes at 120A, while fractions 7-9 correspond to ykt6 monomers at 22-14 A. 15D) The levels of post ER (endo H resistant) GCase were analyzed by western blot and post ER/ER ratios were quantified from the cortex of FTI treated mice (veh, n=5; FTI, n=6). 15E) GCase activity was assessed in cortical lysates and normalized to total protein (veh, n=4; FTI, n=6). 15F) a-Syn levels were quantified from cytosolic or membrane isolated fractions from the cortex of wild-type FTI treated mice (veh, n=4; FTI, n=6). For all quantifications, values are the mean+/−SEM, *p<0.05.
Analysis of post-ER GCase. […]

enhancement of GCase activity in midbrain (GCase [1]): ca. 40%
Compound: C#Cc1cccc(-c2cc(=O)n(C)c3ccc([C@](O)(c4ccc(Cl)cc4)c4cncn4C)cc23)c1 [LNK-754]
GCase trafficking (mature, endo H resistant forms) (GCase [1]; midbrain lysates): enhanced GCase trafficking | mature, endo H resistant GCase in brain (GCase [2]; cortex): elevated levels | GCase enzyme activity in brain (GCase [2]; cortical lysates): higher enzyme activity
